A short description of this series: recombinant barcode read abundance after kanamycin selection (control-corrected) (log10(CPM+1)); higher = more efficient recombination; sequences stand for … in AGTGCAGAGAAAATCGGCCAGTTTTCTCTGCCTGCAGTCCGCATGCCGT…AGATTTATGCAGCGGACTGCCTTTCTCCCAAAGTGATAAACCGGACAGTATCATGGACCGGTTTTCCCGGTAATCCGTATTTGCAAGGTTGGTTTCACT; site = the 11-nt target. The method, then: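 Pooled E. coli target-specificity screen for the IS621 bridge recombinase. Each library plasmid pairs an 11-nt target (CT core) with a bridge RNA whose target-binding loop (9-nt LTG + 4-nt RTG) is reprogrammed; the rest of the 177-nt WT IS621 bridge RNA scaffold is fixed. The plasmid is co-electroporated with a WT donor plasmid; recombinase is induced with 0.1 mM IPTG and recombinants are selected on kanamycin. Recombinant barcodes are sequenced, converted to CPM, averaged over two biological replicates and corrected by the unselected control CPM. Molecule = full bridge RNA written as DNA: LTG = specificity nt 1-9, RTG = reverse complement of specificity nt 8-11, in the WT scaffold.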
On to “AAGGCCTCTTGGGTTCTAACCTGTTGCCA (site AAGGCCTCTTG)”, for which the “recombinant barcode read abundance (log10)” value is 1.88.

On to “AAGGCCTCTTGGGTTCTAACCTGTTGCTT (site AAGACCTCTAA)”, for which the “recombinant barcode read abundance (log10)” value came to 0.775.

Regarding “AAGGCCTCTTGGGTTCTAACCTGTTGCTT (site AAGCCCTCTAA)”, the “recombinant barcode read abundance (log10)” value came to 0.156.

In the case of “AAGGCCTCTTGGGTTCTAACCTGTTGCTT (site AAGGCCTCTAA)”, the “recombinant barcode read abundance (log10)” value was found to be 2.74.

Take “AAGGCCTCTTGGGTTCTAACCTGTTGCTT (site AAGTCCTCTAA)”: the “recombinant barcode read abundance (log10)” value came out at 0.058.

“AAGGGCCCTTGGGTTCTAACCTGTTGCCT (site AAGGGCCCTAG)”: the “recombinant barcode read abundance (log10)” value is 2.1.

With “AAGGGCCCTTGGGTTCTAACCTGTTGCCT (site CAGGGCCCTAG)”, the “recombinant barcode read abundance (log10)” value worked out at 0.339.

For “AAGGGCCCTTGGGTTCTAACCTGTTGCCT (site GAGGGCCCTAG)”, the “recombinant barcode read abundance (log10)” value was found to be 0.122.

For the sequence “AAGGGCCCTTGGGTTCTAACCTGTTGCCT (site TAGGGCCCTAG)”, the “recombinant barcode read abundance (log10)” value turned out to be 2.24.

For the sequence “AAGGGCGCTTGGGTTCTAACCTGTTGCCT (site AAGGACGCTAG)”, the “recombinant barcode read abundance (log10)” value worked out at 0.618.

In the case of “AAGGGCGCTTGGGTTCTAACCTGTTGCCT (site AAGGCCGCTAG)”, the “recombinant barcode read abundance (log10)” value amounted to 0.238.

Regarding “AAGGGCGCTTGGGTTCTAACCTGTTGCCT (site AAGGGCGCTAG)”, the “recombinant barcode read abundance (log10)” value is 1.49.

As to “AAGGGCGCTTGGGTTCTAACCTGTTGCCT (site AAGGTCGCTAG)”, the “recombinant barcode read abundance (log10)” value is 0.261.

Turning to “AAGGGGCCTTGGGTTCTAACCTGTTGCCT (site AAGGGGCCTAG)”, the “recombinant barcode read abundance (log10)” value came out at 1.8.

As to “AAGGGGCCTTGGGTTCTAACCTGTTGCCT (site CGATCTACTCT)”, the “recombinant barcode read abundance (log10)” value was 0.271.

Consider “AAGGGGTCTTGGGTTCTAACCTGTTGCTT (site AAGGGGTCTAA)”, for which the “recombinant barcode read abundance (log10)” value was found to be 3.02.

Turning to “AAGGGGTCTTGGGTTCTAACCTGTTGCTT (site ATGGGGTCTAA)”, the “recombinant barcode read abundance (log10)” value stood at 0.898.

Regarding “AAGGTCGCTTGGGTTCTAACCTGTTGCCT (site AAGGACGCTAG)”, the “recombinant barcode read abundance (log10)” value was 0.33.

“AAGGTCGCTTGGGTTCTAACCTGTTGCCT (site AAGGCCGCTAG)”: the “recombinant barcode read abundance (log10)” value came out at 1.14.

Take “AAGGTCGCTTGGGTTCTAACCTGTTGCCT (site AAGGGCGCTAG)”: the “recombinant barcode read abundance (log10)” value is 0.347.

Consider “AAGGTCGCTTGGGTTCTAACCTGTTGCCT (site AAGGTCGCTAG)”, for which the “recombinant barcode read abundance (log10)” value is 2.45.

Take “AAGTATCCTTGGGTTCTAACCTGTTGCGG (site AAGTATCCTCC)”: the “recombinant barcode read abundance (log10)” value is 2.02.

In the case of “AAGTATCCTTGGGTTCTAACCTGTTGCGG (site AGGGATCCTCC)”, the “recombinant barcode read abundance (log10)” value is 0.349.

Take “AAGTATTCTTGGGTTCTAACCTGTTGCGT (site AAGTATTCTAC)”: the “recombinant barcode read abundance (log10)” value was found to be 2.23.

Turning to “AAGTATTCTTGGGTTCTAACCTGTTGCGT (site TAGTCTTCTAC)”, the “recombinant barcode read abundance (log10)” value amounted to 0.022.

Regarding “AAGTCCTCTTGGGTTCTAACCTGTTGCTG (site AAGTCCTCTCA)”, the “recombinant barcode read abundance (log10)” value was found to be 1.43.

In the case of “AAGTCCTCTTGGGTTCTAACCTGTTGCTG (site CTAAGGCCTAT)”, the “recombinant barcode read abundance (log10)” value turned out to be 0.442.

With “AAGTCCTCTTGGGTTCTAACCTGTTGCTT (site AAGACCTCTAA)”, the “recombinant barcode read abundance (log10)” value amounted to 0.0682.

Turning to “AAGTCCTCTTGGGTTCTAACCTGTTGCTT (site AAGCCCTCTAA)”, the “recombinant barcode read abundance (log10)” value worked out at 0.682.

As to “AAGTCCTCTTGGGTTCTAACCTGTTGCTT (site AAGGCCTCTAA)”, the “recombinant barcode read abundance (log10)” value turned out to be 0.153.

As to “AAGTCCTCTTGGGTTCTAACCTGTTGCTT (site AAGTCCTCTAA)”, the “recombinant barcode read abundance (log10)” value turned out to be 1.48.

Regarding “AAGTCGACTTGGGTTCTAACCTGTTGCCT (site AAGTCGACTAG)”, the “recombinant barcode read abundance (log10)” value worked out at 0.76.

For the sequence “AAGTCGACTTGGGTTCTAACCTGTTGCCT (site AAGTGGACTAG)”, the “recombinant barcode read abundance (log10)” value amounted to 0.0428.

For the sequence “AAGTGAGCTTGGGTTCTAACCTGTTGCCA (site AAGTGAGCTTG)”, the “recombinant barcode read abundance (log10)” value turned out to be 0.408.

Consider “AAGTGAGCTTGGGTTCTAACCTGTTGCCA (site CTCCTCTCTAT)”, for which the “recombinant barcode read abundance (log10)” value worked out at 0.0964.

“AAGTTTACTTGGGTTCTAACCTGTTGCCT (site AAGTTTACTAA)”: the “recombinant barcode read abundance (log10)” value was 0.0435.

For “AAGTTTACTTGGGTTCTAACCTGTTGCCT (site AAGTTTACTAG)”, the “recombinant barcode read abundance (log10)” value is 0.0875.

Turning to “AATAAGACTTGGGTTCTAACCTGTTGCCA (site AATAAGACTTG)”, the “recombinant barcode read abundance (log10)” value is 0.65.

Turning to “AATAAGACTTGGGTTCTAACCTGTTGCCA (site AATAGGACTTA)”, the “recombinant barcode read abundance (log10)” value was determined as 0.134.

For the sequence “AATAAGTCTTGGGTTCTAACCTGTTGCAT (site AATAAGTCTAT)”, the “recombinant barcode read abundance (log10)” value amounted to 0.385.

For the sequence “AATAAGTCTTGGGTTCTAACCTGTTGCAT (site CTCGCTCCTCA)”, the “recombinant barcode read abundance (log10)” value was 0.0524.

In the case of “AATAGGCCTTGGGTTCTAACCTGTTGCGT (site AATAGGCCTAC)”, the “recombinant barcode read abundance (log10)” value was determined as 1.6.

Turning to “AATAGGCCTTGGGTTCTAACCTGTTGCGT (site AATCGGCCTAC)”, the “recombinant barcode read abundance (log10)” value was determined as 0.163.

Turning to “AATAGGCCTTGGGTTCTAACCTGTTGCGT (site AATGGGCCTAC)”, the “recombinant barcode read abundance (log10)” value worked out at 0.23.

For the sequence “AATAGGCCTTGGGTTCTAACCTGTTGCGT (site AATTGGCCTAC)”, the “recombinant barcode read abundance (log10)” value amounted to 0.0726.

In the case of “AATCGCACTTGGGTTCTAACCTGTTGCCT (site AATACCACTAG)”, the “recombinant barcode read abundance (log10)” value stood at 0.

“AATCGCACTTGGGTTCTAACCTGTTGCCT (site AATCGCACTAG)”: the “recombinant barcode read abundance (log10)” value is 0.216.

On to “AATGCTCCTTGGGTTCTAACCTGTTGCAT (site AATGCTCCTAA)”, for which the “recombinant barcode read abundance (log10)” value was 0.0259.

Take “AATGCTCCTTGGGTTCTAACCTGTTGCAT (site AATGCTCCTAC)”: the “recombinant barcode read abundance (log10)” value was 0.532.

“AATGCTCCTTGGGTTCTAACCTGTTGCAT (site AATGCTCCTAG)”: the “recombinant barcode read abundance (log10)” value was 0.248.

For “AATGCTCCTTGGGTTCTAACCTGTTGCAT (site AATGCTCCTAT)”, the “recombinant barcode read abundance (log10)” value came out at 0.533.

Consider “AATGCTCCTTGGGTTCTAACCTGTTGCCT (site AATGCTCCTAA)”, for which the “recombinant barcode read abundance (log10)” value came out at 0.0483.

Turning to “AATGCTCCTTGGGTTCTAACCTGTTGCCT (site AATGCTCCTAC)”, the “recombinant barcode read abundance (log10)” value was determined as 0.158.

Regarding “AATGCTCCTTGGGTTCTAACCTGTTGCCT (site AATGCTCCTAG)”, the “recombinant barcode read abundance (log10)” value was determined as 0.561.

For “AATGCTCCTTGGGTTCTAACCTGTTGCCT (site AATGCTCCTAT)”, the “recombinant barcode read abundance (log10)” value worked out at 0.0129.

On to “AATGGGCCTTGGGTTCTAACCTGTTGCGT (site AATAGGCCTAC)”, for which the “recombinant barcode read abundance (log10)” value was found to be 1.71.

For “AATGGGCCTTGGGTTCTAACCTGTTGCGT (site AATCGGCCTAC)”, the “recombinant barcode read abundance (log10)” value was determined as 0.048.

“AATGGGCCTTGGGTTCTAACCTGTTGCGT (site AATGGGCCTAC)”: the “recombinant barcode read abundance (log10)” value worked out at 2.4.

With “AATGGGCCTTGGGTTCTAACCTGTTGCGT (site AATTGGCCTAC)”, the “recombinant barcode read abundance (log10)” value is 0.765.

On to “AATGGGGCTTGGGTTCTAACCTGTTGCAG (site AATGGGGCTCT)”, for which the “recombinant barcode read abundance (log10)” value was determined as 2.51.

Consider “AATGGGGCTTGGGTTCTAACCTGTTGCAG (site CGGCCACCTAA)”, for which the “recombinant barcode read abundance (log10)” value was found to be 0.185.

“AATGGGTCTTGGGTTCTAACCTGTTGCTT (site AATGGGTCTAA)”: the “recombinant barcode read abundance (log10)” value amounted to 1.71.

Take “AATGGGTCTTGGGTTCTAACCTGTTGCTT (site CCACTAGCTCT)”: the “recombinant barcode read abundance (log10)” value was determined as 0.0323.

In the case of “AATTGGCCTTGGGTTCTAACCTGTTGCGT (site AATAGGCCTAC)”, the “recombinant barcode read abundance (log10)” value is 0.425.

Take “AATTGGCCTTGGGTTCTAACCTGTTGCGT (site AATCGGCCTAC)”: the “recombinant barcode read abundance (log10)” value is 0.976.

Turning to “AATTGGCCTTGGGTTCTAACCTGTTGCGT (site AATGGGCCTAC)”, the “recombinant barcode read abundance (log10)” value worked out at 0.376.

Consider “AATTGGCCTTGGGTTCTAACCTGTTGCGT (site AATTGGCCTAC)”, for which the “recombinant barcode read abundance (log10)” value stood at 0.673.

For “ACAAACCCTTGGGTTCTAACCTGTTGCCT (site ACAAAACCTAG)”, the “recombinant barcode read abundance (log10)” value is 0.214.

Regarding “ACAAACCCTTGGGTTCTAACCTGTTGCCT (site ACAAACCCTAG)”, the “recombinant barcode read abundance (log10)” value stood at 0.812.

On to “ACAAACCCTTGGGTTCTAACCTGTTGCCT (site ACAAAGCCTAG)”, for which the “recombinant barcode read abundance (log10)” value worked out at 0.159.

For the sequence “ACAAACCCTTGGGTTCTAACCTGTTGCCT (site ACAAATCCTAG)”, the “recombinant barcode read abundance (log10)” value turned out to be 0.0456.

As to “ACAAAGCCTTGGGTTCTAACCTGTTGCCT (site ACAAAACCTAG)”, the “recombinant barcode read abundance (log10)” value came to 0.49.

In the case of “ACAAAGCCTTGGGTTCTAACCTGTTGCCT (site ACAAACCCTAG)”, the “recombinant barcode read abundance (log10)” value is 0.0556.

For the origin of these results see the supplement of paper PMC11208160.
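Also: IS621 recombinase and bridge RNA in Escherichia coli cells.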
